Measured values reported in patent US20090306142A1, “METHODS TO CONTROL QoI-RESISTANT FUNGAL PATHOGENS” (DOW AGROSCIENCES LLC, priority 2008, published 2009).
In brackets after ≈: the same amount, converted by molar mass. Read-outs that look alike come from different tables or passages of the source.

Key:
[1] = tested on: SEPTTR field isolate LARS 15; assay: in vitro fungitoxicity, microtiter plate assay, strobilurin-sensitive isolate; conditions: for activity against the LARS 15 strain (in words): isolate LARS 15; for LARS 15 EC50: isolate LARS 15, sensitive to strobilurins
[2] = tested on: SEPTTR field isolate R2004-6 (G143A mutation in cytochrome b); assay: in vitro fungitoxicity, microtiter plate assay, strobilurin-resistant isolate; conditions: for activity against the QoI-resistant strain R2004-6 (in words): isolate R2004-6; for R2004-6 EC50: isolate R2004-6, G143A, resistant to strobilurins
[3] = tested on: QoI-sensitive SEPTTR isolates ('WT'); assay: in vitro fungitoxicity, panel of SEPTTR isolates, QoI-sensitive; conditions: for mean EC50, QoI-Sensitive (n = 17): mean of 17 QoI-sensitive isolates
Text: (§1) A panel of 31 SEPTTR isolates was used in in vitro fungitoxicity experiments. Most of the used isolates were isolated from wheat in the UK from 2001 to 2005.

[4] = tested on: QoI-resistant SEPTTR isolates ('G143A'); assay: in vitro fungitoxicity, panel of SEPTTR isolates, QoI-resistant; conditions: for mean EC50, QoI-resistant (n = 14): mean of 14 QoI-resistant isolates; for fold less active against QoI-resistant than QoI-sensitive isolates: resistant vs sensitive
Text: as §1

[5] = tested on: SEPTTR field isolate R2004-6 (G143A mutation in cytochrome b)
[6] = tested on: QoI-resistant SEPTTR isolates; assay: in-planta control of SEPTTR on wheat cultivar Riband, QoI-resistant isolates; type: in vivo, Septoria tritici; conditions: visual inspection 21 days after inoculation

Row | Compound | LARS 15 EC50 [1] | R2004-6 EC50 [2] | R2004-6 EC50 [5] | further results
1 | UK2A [UK-2A] | 0.037 ppm | 0.029 ppm |  | activity against the LARS 15 strain (in words) [1]: highly active; activity against the QoI-resistant strain R2004-6 (in words) [2]: highly active
2 | CO/C=C(/C(=O)OC)c1ccccc1Oc1cc(Oc2ccccc2C#N)ncn1 [Azoxystrobin, azoxystrobin] | 0.011 ppm | 3.00 ppm |  | mean EC50, QoI-Sensitive (n = 17) [3]: 0.057 µg/mL; mean EC50, QoI-resistant (n = 14) [4]: 9.077 µg/mL; fold less active against QoI-resistant than QoI-sensitive isolates ([4]; ratio of mean EC50 values): 160 fold
3 | C[C@@]1(c2ccc(Oc3ccccc3)cc2)OC(=O)N(Nc2ccccc2)C1=O (racemic) [Famoxadone, famoxadone] | 0.136 ppm |  | >5 ppm | 
4 | CO/N=C(/C(=O)OC)c1ccccc1COc1ccccc1C [Kresoxim-methyl, kresoxim-methyl] | <0.005 ppm |  | >5 ppm | 
5 | antimycin A | 0.021 ppm | 0.011 ppm |  | 
6 | COc1ccnc(C(=O)N[C@H]2COC(=O)[C@H](Cc3ccccc3)[C@@H](OC(=O)C(C)C)[C@H](C)OC2=O)c1OCOC(=O)C(C)C [Compound 1] | 0.169 ppm | 0.122 ppm |  | mean EC50, QoI-Sensitive (n = 17) [3]: 0.035 µg/mL; breaking rate for control of SEPTTR infection ([6]; isolate G3-03, QoI R): 0.9 ppm; breaking rate for control of SEPTTR infection ([6]; isolate TwistB-02, QoI R): 0.3 ppm; activity against the LARS 15 strain (in words) [1]: highly active; mean EC50, QoI-resistant (n = 14) [4]: 0.021 µg/mL; fold more active against QoI-resistant than QoI-sensitive isolates ([4]; ratio of mean EC50 values, sensitive vs resistant): 1.7 fold; activity against the QoI-resistant strain R2004-6 (in words) [2]: highly active
7 | CCC1(C)CC(NC(=O)c2cccc(NC=O)c2O)CC(C)(C)C1 (stereo not shown) [Compound 2] | 0.0006 ppm |  | <0.0005 ppm | 
8 | COc1ccnc(C(=O)NC2CCCC(Sc3ccc(C(C)(C)C)cc3)C2)c1O (stereo not shown) [Compound 3] | 0.049 ppm |  | 0.059 ppm | 
9 | Fc1ccc([C@]2(Cn3cncn3)O[C@H]2c2ccccc2Cl)cc1 (racemic) [Epoxiconazole, epoxiconazole] |  |  |  | EC50 ([3]; Zymoseptoria tritici, read-out: mean EC50, QoI-Sensitive (n = 17)): 0.351 µg/mL (≈ 1.06 µM); EC50 ([4]; Zymoseptoria tritici, read-out: mean EC50, QoI-resistant (n = 14)): 0.589 µg/mL (≈ 1.79 µM); fold less active against QoI-resistant than QoI-sensitive isolates ([4]; ratio of mean EC50 values): 1.7 fold
